Consider eleven compounds from patent publication US20230365595A1, “INHIBITORS OF KRAS(G12D)” (Ranok Therapeutics (Hangzhou) Co. Ltd., priority 2022, published 2023).

The structures appear in SMILES notation. pIC50: −log10 of the molar value.

The nature of data set [1]: Oral bioavailability in CD-1 mice. The note with it: male, CD-1, mouse, blood, 50 mg/kg.
Procedure: (§3) CD-1 mice were randomly assigned to δgroups with 3 male mice in each compound group. […] Compounds were orally administered (PO) in a single dose to each mouse in its group. Blood samples were taken within 72 hours. Bioavailability (F%) was determined and by liquid chromatography-mass spectrometry (LC-MS/MS).
Data set [2] concerns A427 cells. Kind of data set: CellTiter-Glo cell cytotoxicity, A427. As to conditions: A-427, 72 h, A427 human lung carcinoma, 1 copy of KRAS(G12D), read-out: A427 72H CTG. It counts as cell-based. The procedure: (§1) The following cancer cell lines were employed: A427 human lung carcinoma [1 copy of KRAS(G12D)] (ATCC, #HTB-53); AGS human gastric adenocarcinoma [1 copy of KRAS(G12D)] (ATCC, #CRL-1739); and AsPC-1 human adenocarcinoma [2 copies of KRAS(G12D)] (ATCC, CRL-1682). Cell lines were cultured essentially according to American Type Culture Collection (ATCC) recommendations.
A427 and AGS cells were plated in 96-well tissue culture plates at 4,000 cells/well and incubated at 37° C/5% CO2 for 72 hr in 100 μl of media. 3-fold serial dilutions of each test compound were prepared ranging from 20 μM to 1.02 nM. Each cell line was then treated with test compounds at various concentrations with a final concentration of 0.5%
(§2) […] 100 Ill of CellTiter-Glo® Reagent (Promega Corporation, Madison, WI) was added to each well and processed according manufacturer's protocol. Results were analyzed and IC50 values were calculated in GraphPad 7 software.

In data set [3] the test system is AGS cells. Kind of data set: CellTiter-Glo cell cytotoxicity, AGS. The note with it: AGS human gastric adenocarcinoma, 1 copy of KRAS(G12D), read-out: AGS 72H CTG. It counts as cell-based. The method, then:
as §1
A427 and AGS cells were plated in 96-well tissue culture plates at 4,000 cells/well and incubated at 37° C/5% CO2 for 72 hr in 100 μl of media. 3-fold serial dilutions of each test compound were prepared ranging from 20 μM to 1.02 nM. […]
as §2

In data set [4] the target is T1, KRAS(G12D)-SOS1 (Homo sapiens, UniProt P01116, G12D).
T1 construct: purchased Cisbio 63ADK000CB16PEG
Kind of data set: KRAS(G12D)/SOS1 HTRF binding assay. As to conditions: absence of GTP; 4° C. for 3 hr. The method, then: Binding of test compounds to KRAS(G12D) target protein, which in turn blocks KRAS(G12D) interaction with the SOS1 protein, was measured in the absences of GTP by homogeneous time-resolved fluorescence using the KRAS-G12D/SOS1 Binding Assay Kit (Cisbio, #63ADK000CB16PEG), following the manufacturer's instructions, except as noted. 3-fold serial dilutions of each test compound were prepared ranging from 20 μM to 1.02 nM. The test compound was mixed and incubated with reaction components, incubated in a sealed plate at 4° C. for 3 hr and fluorescence was measured using a PerkinElmer Envision plate reader. The KRAS(G12D)-SOS1 IC50 values (the concentration of 50% of the maximal inhibition) were calculated using GraphPad Prism 7 software.

Data set [5] is described as follows: in vivo. As to conditions: male, CD-1, mouse, po, 50 mg/kg.
Procedure: as §3

T1 sequence (P01116 1-188 isoform P01116-2 G12D): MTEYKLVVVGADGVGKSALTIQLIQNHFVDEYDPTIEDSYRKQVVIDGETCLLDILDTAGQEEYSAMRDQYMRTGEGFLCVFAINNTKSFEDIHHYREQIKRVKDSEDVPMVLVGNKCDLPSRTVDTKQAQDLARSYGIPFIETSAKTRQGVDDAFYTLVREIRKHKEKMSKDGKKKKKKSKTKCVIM

With `C#Cc1c(F)ccc2cc(O)cc(-c3ncc4c(N5CC6CCC(C5)N6)nc(OCC5(CN6CC7CC7C6)CC5)nc4c3F)c12` (stereo not drawn) [drawing 121], in data set [1], the bioavailability is 0.47%.

`C#Cc1c(F)ccc2cc(O)cc(-c3ncc4c(N5CC6CCC(C5)N6)nc(OC[C@]56CCCN5C[C@@H](F)C6)nc4c3F)c12` returned a bioavailability in data set [1] of 0.45%.

In turn, `C#Cc1c(F)ccc2cc(O)cc(-c3ncc4c(N5CC6CCC(C5)N6C(=O)C(F)(F)F)nc(OC[C@]56CCCN5C[C@@H](F)C6)nc4c3F)c12` [drawing 118] registered a bioavailability in data set [1] of 15.8%.

Take `C#Cc1c(F)ccc2cc(O)cc(-c3ncc4c(N5CC6CCC(C5)N6)nc(OCC5(CN6CCC(F)CC6)CC5)nc4c3F)c12` [drawing 117]: the bioavailability in data set [1] amounted to 0.82%.

Consider `C#Cc1c(F)ccc2cc(O)cc(-c3ncc4c(N5CC6CCC(C5)N6C(=O)C(F)(F)F)nc(OCC5(CN6CC7CC7C6)CC5)nc4c3F)c12` (stereo not drawn) [drawing 114], for which the pIC50 in data set [2] is 5.00 to 6.00; in data set [3] it was 7.00 to 9.00.

Regarding `C#Cc1c(F)ccc2cc(O)cc(-c3ncc4c(N5CC6CCC(C5)N6C(=O)C(F)(F)F)nc(OC[C@]56CCCN5C[C@@H](F)C6)nc4c3F)c12` [drawing 112], the pIC50 in data set [2] was 5.00 to 6.00; in data set [3], 7.00 to 9.00.

Consider `C#Cc1c(F)ccc2cc(O)cc(-c3ncc4c(N5CC6CCC(C5)N6)nc(OCC5(CN6CC7CC7C6)CC5)nc4c3F)c12` (stereo not drawn) [drawing 115], for which the pIC50 in data set [2], in data set [3] and in data set [4] was 7.00 to 9.00 each time.

In the case of `C#Cc1c(F)ccc2cc(O)cc(-c3ncc4c(N5CC6CCC(C5)N6)nc(OCC5(CN6CCC(F)CC6)CC5)nc4c3F)c12` [drawing 111], the pIC50 in data set [2] and in data set [3] was 7.00 to 9.00 each time.

Regarding `C#Cc1c(F)ccc2cc(O)cc(-c3ncc4c(N5CC6CCC(C5)N6C(=O)C(F)(F)F)nc(OCC5(CN6CCC(F)CC6)CC5)nc4c3F)c12` [drawing 116], the bioavailability in data set [1] is 12.4%.

Take `C#Cc1c(F)ccc2cc(O)cc(-c3ncc4c(N5CC6CCC(C5)N6C(=O)C(F)(F)F)nc(OCC5(CN6CC7CC7C6)CC5)nc4c3F)c12` (stereo not drawn) [drawing 120]: the bioavailability in data set [5] stood at 17.4%.

On to `C#Cc1c(F)ccc2cc(O)cc(-c3ncc4c(N5CC6CCC(C5)N6C(=O)C(F)(F)F)nc(OCC5(CN6CCC(F)CC6)CC5)nc4c3F)c12` [drawing 110], for which the pIC50 in data set [2], in data set [3] and in data set [4] was 7.00 to 9.00 each time.
